Each structure is given as a SMILES string.

The target in assay [1] is T1, 5-lipoxygenase (Cavia porcellus, UniProt A0A286X958).
T1 construct: A-23187-stimulated guinea pig polymorphonuclear leukocytes; endogenous in cells; host or cells: guinea pig polymorphonuclear leukocytes
T1 sequence (A0A286X958 1-674): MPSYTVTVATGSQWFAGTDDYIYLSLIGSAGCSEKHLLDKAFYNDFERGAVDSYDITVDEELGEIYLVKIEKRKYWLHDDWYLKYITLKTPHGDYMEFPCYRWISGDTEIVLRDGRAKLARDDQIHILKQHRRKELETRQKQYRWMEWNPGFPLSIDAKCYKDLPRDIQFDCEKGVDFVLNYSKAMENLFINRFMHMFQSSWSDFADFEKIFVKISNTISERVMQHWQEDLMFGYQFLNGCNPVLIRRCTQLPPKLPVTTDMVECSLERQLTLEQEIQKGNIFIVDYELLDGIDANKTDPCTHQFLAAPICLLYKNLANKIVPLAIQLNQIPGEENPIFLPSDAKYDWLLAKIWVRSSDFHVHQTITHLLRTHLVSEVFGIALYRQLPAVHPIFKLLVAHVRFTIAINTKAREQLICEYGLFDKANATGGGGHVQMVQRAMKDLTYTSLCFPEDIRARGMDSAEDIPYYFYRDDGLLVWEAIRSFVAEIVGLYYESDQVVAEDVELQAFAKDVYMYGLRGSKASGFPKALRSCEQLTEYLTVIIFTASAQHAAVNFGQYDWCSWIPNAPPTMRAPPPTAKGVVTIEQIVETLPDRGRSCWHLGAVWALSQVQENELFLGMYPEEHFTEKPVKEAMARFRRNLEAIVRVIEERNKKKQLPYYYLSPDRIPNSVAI
Nature of the assay: Inhibition of 5-HETE and LTB4 synthesis in A-23187-stimulated guinea pig polymorphonuclear leukocytes. It is filed as cell-based. The note with it: read-out: IC50, inhibition of the formation of 5-HETE and leukotriene B4 (LTB4). On the procedure: 5-Lipoxygenase inhibition is determined e.g. by measuring the percent inhibition of the synthesis of 5-HETE [(5S)-5-hydroxy-6,8,11,14-eicosa-tetraenoic acid] and leukotriene B4 (LTB4, 5,12-dihydroxy-6,8, 10, 14-eicosatetraenoic acid) in A-23187-stimulated guinea pig polymorphonuclear leukocytes, essentially according to radiometric thin-layer chromatographic assays described by Walker and Dawson (J. Pharm. Pharmacol. 31: 778, 1979) and Jakschik and Lee (Nature 287: 51, 1980) to measure the formation of 5-HETE and LTB4 -like products from ^14 C-arachidonic acid. IC50 values are determined graphically as the concentration of test compound at which the synthesis of 5-HETE and LTB4 -like products is reduced to 50 % of their respective control values.

For assay [2], the system named is 5-lipoxygenase. In words: Ex vivo inhibition of A-23187-stimulated LTB4 formation in whole blood after oral administration. The following applies: dose of about 1.0 mg/kg p.o. to the dog. On the procedure:
Furthermore, the inhibition of 5-lipoxygenase is determined after oral or i.v. administration to rats or dogs by measuring ex vivo in whole blood the decrease of A-23187-stimulated LTB4 formation as compared to non-treated control animals.

Consider `NC(=O)N(O)CCOc1ccc2c(c1)CCN(CCCc1ccccc1)C2=O` [1(f), 2-(3-phenylpropyl)-6-[2-(N-aminocarbonyl-N-hydroxyamino)ethoxy]-1-oxo-1,2,3,4-tetrahydroisoquinoline], for which, at 5-lipoxygenase [1], the IC50 (commonly the concentration at which inhibition is half-maximal) was approximately 500 nM. Besides, in the assay with 5-lipoxygenase [2], the “inhibition of LTB4 formation as determined ex vivo” value is recorded as “significant inhibition”.

The record behind these values is patent publication US5334600A, “Isoquinolyl substituted hydroxylamine derivatives” (Ciba-Geigy Corporation, priority 1993, dated 1994).
